ChEMBL document CHEMBL4808216, “Gut-Restricted Selective Cyclooxygenase-2 (COX-2) Inhibitors for Chemoprevention of Colorectal Cancer” (J Med Chem, 2021)
≈ marks a conversion by molar mass, not a printed value.

Columns and labels:
[1] = biological target: T1, Prostaglandin G/H synthase 2 (Homo sapiens, UniProt P35354); test: Inhibition of human recombinant COX-2 assessed as reduction in peroxidase activity using arachidonic acid as substrate preincubated for 60 mins followed by substrate addition for 2 secs by ADPH based fluorometric analysis
T1 sequence (P35354 whole entry): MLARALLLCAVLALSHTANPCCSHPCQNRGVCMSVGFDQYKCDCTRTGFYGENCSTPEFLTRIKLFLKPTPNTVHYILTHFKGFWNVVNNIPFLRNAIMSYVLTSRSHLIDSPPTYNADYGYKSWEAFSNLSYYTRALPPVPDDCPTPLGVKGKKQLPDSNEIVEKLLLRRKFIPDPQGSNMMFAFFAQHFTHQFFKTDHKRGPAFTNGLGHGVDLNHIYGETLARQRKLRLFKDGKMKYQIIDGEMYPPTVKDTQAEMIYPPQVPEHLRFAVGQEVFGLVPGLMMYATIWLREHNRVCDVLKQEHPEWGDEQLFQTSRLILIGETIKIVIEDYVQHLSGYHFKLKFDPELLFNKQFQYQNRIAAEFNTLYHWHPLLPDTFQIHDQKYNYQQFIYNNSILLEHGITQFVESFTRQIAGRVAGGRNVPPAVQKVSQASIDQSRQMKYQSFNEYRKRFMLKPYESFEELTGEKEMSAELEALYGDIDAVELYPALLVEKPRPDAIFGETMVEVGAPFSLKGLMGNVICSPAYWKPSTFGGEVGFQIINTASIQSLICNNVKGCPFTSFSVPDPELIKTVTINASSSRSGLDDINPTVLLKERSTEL

[2] = biological target: T1, Prostaglandin G/H synthase 2; test: Inhibition of COX2 (unknown origin) expressed in HEK293 TRex cells assessed as reduction in PGE2 production using arachidonic acid as substrate preincubated for 60 mins followed by substrate addition for 1 hr in presence of 10% FBS by RapidFire High-Throughput Mass Spectrometry; assay type: cell-based, HEK293-T-REx
[3] = Clearance in C57BL/6J mouse at 2 mg/kg, iv measured after 0.08 to 24 hrs; assay type: ADME, organism-based; details: in vivo, time 0.08-24 hrs
[4] = Ratio of drug concentration in C57BL/6J mouse colon to plasma at 10 mg/kg, po measured after 4 hr by liquid chromatographic triple-quadrupole mass spectrometric method; assay type: ADME, organism-based; details: C57BL/6J, colon / plasma
[5] = biological target: T2, Prostaglandin G/H synthase 1 (Homo sapiens, UniProt P23219); test: Inhibition of human recombinant COX-1 assessed as reduction in peroxidase activity using arachidonic acid as substrate preincubated for 60 mins followed by substrate addition for 2 secs by ADPH based fluorometric analysis; assay type: ADME
T2 sequence (P23219 whole entry): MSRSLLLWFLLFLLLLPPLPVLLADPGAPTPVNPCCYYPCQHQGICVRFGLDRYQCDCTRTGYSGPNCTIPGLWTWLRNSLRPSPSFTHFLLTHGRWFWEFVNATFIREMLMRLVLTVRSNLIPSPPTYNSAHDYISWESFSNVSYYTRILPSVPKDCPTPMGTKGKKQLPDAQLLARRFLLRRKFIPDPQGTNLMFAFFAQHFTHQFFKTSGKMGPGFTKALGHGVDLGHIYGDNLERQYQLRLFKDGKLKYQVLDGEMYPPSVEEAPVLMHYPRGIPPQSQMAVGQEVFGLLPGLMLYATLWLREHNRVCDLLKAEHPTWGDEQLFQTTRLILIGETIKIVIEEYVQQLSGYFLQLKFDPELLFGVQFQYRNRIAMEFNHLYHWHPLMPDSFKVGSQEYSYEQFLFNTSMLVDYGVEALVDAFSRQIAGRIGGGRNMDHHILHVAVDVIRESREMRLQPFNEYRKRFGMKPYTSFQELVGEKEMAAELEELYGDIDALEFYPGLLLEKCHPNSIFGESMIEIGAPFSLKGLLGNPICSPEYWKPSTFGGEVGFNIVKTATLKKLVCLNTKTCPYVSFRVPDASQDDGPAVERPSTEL

[6] = Half life in C57BL/6J mouse at 2 mg/kg, iv measured after 0.08 to 24 hrs; assay type: ADME, organism-based; details: C57BL/6J, in vivo, time 0.08-24 hrs
[7] = Volume of distribution at steady state in C57BL/6J mouse at 2 mg/kg, iv measured after 0.08 to 24 hrs; assay type: ADME, organism-based; details: C57BL/6J, in vivo, time 0.08-24 hrs, read-out: Vdss
[8] = Half life in mouse liver microsomes; assay type: ADME, Microsome
[9] = Half life in human hepatocytes; assay type: ADME, cell-based, Hepatocyte
[10] = Half life in human liver microsomes; assay type: ADME, Microsome
[11] = biological target: T2, Prostaglandin G/H synthase 1; test: Inhibition of COX1 (unknown origin) expressed in HEK293 TRex cells assessed as reduction in PGE2 production using arachidonic acid as substrate preincubated for 60 mins followed by substrate addition for 1 hr in presence of 10% FBS by RapidFire High-Throughput Mass Spectrometry; assay type: ADME, cell-based, HEK293-T-REx
[12] = Half life in mouse hepatocytes; assay type: ADME, cell-based, Hepatocyte
[13] = Tmax in C57BL/6J mouse at 10 mg/kg, po administered as cassette dose measured at 4 hrs by liquid chromatographic triple-quadrupole mass spectrometric method; assay type: ADME, organism-based; details: in vivo
[14] = Drug concentration in C57BL/6J mouse colon at 10 mg/kg, po administered as cassette dose measured at 4 hrs by LC/MS/MS analysis; assay type: ADME, organism-based; details: read-out: Ct
[15] = Drug concentration in C57BL/6J mouse plasma at 10 mg/kg, po administered as cassette dose measured at 4 hrs by LC/MS/MS analysis; assay type: ADME, organism-based
[16] = Equilibrium solubility of compound in FASSIF at pH 6.5; assay type: physicochemical
[17] = biological target: T3, Prostaglandin G/H synthase 2 (Homo sapiens) (UniProt P35354)
T3 sequence (whole entry): T1 sequence (P35354 whole entry)
Description: Protein occupancy at human recombinant COX-2 assessed as dissociation half life

Mus musculus [18] = test: Antitumor activity in C57BL/6J mouse model of spontaneous GI-tract tumor Apc-min assessed as mouse survival at 100 mg/kg, po administered daily as suspension and measured at day 82 by Kaplan-Meier method; assay type: functional
[19] = biological target: T2, Prostaglandin G/H synthase 1; test: Inhibition of COX1 in human whole blood assessed as reduction in calcium ionophore-stimulated TXB2 production incubated for 1 hr by ELISA; assay type: tissue-based
in vivo = details: C57BL/6J, mouse, colon / portal vein plasma, po, 10 mg/kg
Description: Ratio of drug concentration in C57BL/6J mouse colon to portal vein plasma at 10 mg/kg, po measured after 4 hr by liquid chromatographic triple-quadrupole mass spectrometric method

Mus musculus [20] = test: Chemo-protective activity in C57BL/6J mouse model of spontaneous GI-tract tumor Apc-min assessed as 18F-FDG uptake in ileum at 300 mg/kg, po incorporated into chow diet administered daily for 2 weeks and measured after 14 days by ex vivo PET imaging analysis relative to control; assay type: functional
[21] = Drug concentration in C57BL/6J mouse portal vein plasma at 10 mg/kg, po administered as cassette dose measured at 4 hrs by LC/MS/MS analysis; assay type: ADME, organism-based
[22] = Protein binding in human plasma assessed as unbound fraction; assay type: ADME, cell-free
[23] = Protein binding in human colon assessed as unbound fraction; assay type: ADME, tissue-based
Mus musculus [24] = test: Antitumor activity in C57BL/6J mouse model of spontaneous GI-tract tumor Apc-min assessed as reduction in total ileum polyp area at 300 mg/kg, po administered as suspension for 10 to 12 weeks; assay type: functional; details: time 10-12 weeks, read-out: TGI
HEK293 = test: Selectivity ratio of IC50 for COX1 (unknown origin) expressed in HEK293 TRex cells assessed as reduction in PGE2 production to IC50 for COX2 (unknown origin) expressed in HEK293 TRex cells assessed as reduction in PGE2 production; assay type: cell-based; details: Homo sapiens
[25] = biological target: T1, Prostaglandin G/H synthase 2; test: Inhibition of COX2 in human whole blood assessed as reduction in LPS stimulated PGE2 production incubated for 1 hr by ELISA; assay type: tissue-based
Homo sapiens = species on record: Homo sapiens; test: Selectivity ratio of IC50 for COX1 in human whole blood assessed as reduction in calcium ionophore-stimulated TXB2 production to IC50 for COX2 in human whole blood assessed as reduction in LPS stimulated PGE2 production; assay type: tissue-based
[26] = biological target: T1, Prostaglandin G/H synthase 2; test: Inhibition of human recombinant COX-2 using arachidonic acid as substrate preincubated for 60 mins followed by substrate addition for 2 secs by ADPH based fluorometric analysis

Compound | IC50 [1] [nM] | IC50 [2] [nM] | clearance [3] [mL/min/kg] | Kp at 4 h [4] | IC50 [5] [nM] | IC50 [11] [nM] | concentration at 4 h [14] [ng/g] | concentration at 4 h [15] [ng/mL] | half-life [6] [h] | Vd [7] [L/kg] | half-life [8] [min] | half-life [9] [min] | half-life [10] [min] | half-life [12] [min] | Tmax [13] [min] | solubility thermodynamic [16] [µM] | Activity (Mus musculus [20]) [%] | concentration at 4 h [21] [ng/mL] | other results
CCc1cnc(OCC(C)(C)O)c(-c2ccc(S(C)(=O)=O)cc2)c1 | 3240 | 950 | 65.6 | 2.5 | > 50000 | > 50000 | 51.6 | 21.8 | 0.32 | 1.35 | 13.2 | 84.2 | 68.7 | 3.2 | 15 |  |  |  | 
CC(C)(O)COc1ncc(C(F)(F)F)cc1-c1ccc(S(C)(=O)=O)cc1 | 390 | 1500 | 0.54 | 0.9 | > 50000 | > 50000 | 8400 | 9800 | 38.5 | 1.55 | > 184 | > 371 | > 184 | > 371 | 180 |  |  |  | 
Cc1ccc(-c2ncc(Cl)cc2-c2ccc(S(C)(=O)=O)cc2)cn1 [ETORICOXIB] |  |  | 41.3 | 1.5 | > 50000 | > 50000 | 55.7 | 36.4 | 0.78 | 1.27 | 53.8 | > 371 | > 184 | 29.2 | 15 | 358 (≈ 128 µg/mL) | 43.5 | 48.6 | T1/2 [17]: 6.1 h; Survival (Mus musculus [18]): >82 days; IC50 [19]: 93800 nM; Kp at 4 h (in vivo): 1.2; fraction unbound [22]: 0.114
Cc1ccc(-c2cc(C(F)(F)F)nn2-c2ccc(S(N)(=O)=O)cc2)cc1 [CELECOXIB] |  |  | 10.5 |  |  |  | 9460 | 2550 | 1.27 | 0.94 | 59.3 | 57.4 | 67.2 | 33.1 | 15 | 134 (≈ 50.9 µg/mL) | 31.4 | 2150 | Survival (Mus musculus [18]): >82 days; fraction unbound [23]: 0.0031; Fu [22]: 0.3%; inhibition in vivo at 300 mg/kg (Mus musculus [24]): 65.9%
CCCCOc1nc(-c2ccc(F)cc2)c(-c2ccc(S(C)(=O)=O)cc2)cc1CO |  | 49 | 32.2 | 24.9 |  | 511 | 1940 | 75.9 |  |  |  |  |  |  |  |  |  |  | Ratio IC50 (HEK293): 10
CCCCOc1nc(OCC(C)(C)O)c(-c2ccc(S(C)(=O)=O)cc2)cc1C(C)(C)O |  | 1210 | 58.8 | 2.5 |  | > 50000 | 85.8 | 35.8 |  |  |  |  |  |  |  |  |  |  | 

Second part, led by results:

IC50 [1] [nM] | IC50 [2] [nM] | clearance [3] [mL/min/kg] | Kp at 4 h [4] | IC50 [5] [nM] | IC50 [11] [nM] | concentration at 4 h [14] [ng/g] | concentration at 4 h [15] [ng/mL] | Compound | half-life [6] [h] | Vd [7] [L/kg] | half-life [8] [min] | half-life [9] [min] | half-life [10] [min] | half-life [12] [min] | Tmax [13] [min] | solubility thermodynamic [16] [µM] | Activity (Mus musculus [20]) [%] | concentration at 4 h [21] [ng/mL] | other results
> 50000 |  |  |  |  |  |  |  | CCCCOc1nc(OCC(C)(C)O)c(-c2ccc(S(C)(=O)=O)cc2)cc1C(=O)O |  |  |  |  |  |  |  |  |  |  | 
 | 2340 | 48.2 | 134 |  | 7690 | 2810 | 22.8 | CCCCOc1nc(OCC(C)(C)O)c(-c2ccc(S(C)(=O)=O)cc2)cc1C(C)O (stereo unspecified) |  |  |  |  |  |  |  |  |  |  | 
18200 | 2950 |  |  | > 50000 | > 50000 |  |  | COCCOc1nc(OCC(C)(C)O)c(-c2ccc(S(C)(=O)=O)cc2)cc1CO |  |  |  |  |  |  |  |  |  |  | 
120 | 37 | 100 | 545 | > 50000 | 7230 | 5390 | 9.9 | CCCCOc1nc(OCC2(O)CCC2)c(-c2ccc(S(C)(=O)=O)cc2)cc1CO |  |  |  |  |  |  |  | 56.1 (≈ 24.4 µg/mL) | 61.2 | 82.4 | IC50 [25]: 146 nM; T1/2 [17]: 39 h; IC50 [19]: > 60000 nM; Ratio IC50 (Homo sapiens): > 200; Ki [26]: 3 nM; fraction unbound [23]: 0.055; Kp at 4 h (in vivo): 69.9; fraction unbound [22]: 0.005
